Test system: LG0703-F948-PDC complex spheroid viability
Test: Anticancer human tumor LG0703-F948-PDC patient-derived lung adenocarcinoma cell line growth inhibition
Conditions: for IC50: curve of first compound; for viability, T/C: stronger effect = lower value
Outline: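 Complex spheroids of tumor cells with HUVEC and human MSCs, exposed to iadademstat combined with other agents. Each agent tested in half-log steps from near clinical Cmax (else 10 microM top), DMSO ≤0.25%.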

[1] = second compound 0.1 µM, first compound 0.000316 µM
[2] = second compound 0.1 µM, first compound 0.001 µM
[3] = second compound 0.1 µM, first compound 0.00316 µM
[4] = second compound 0.1 µM, first compound 0.01 µM
[5] = second compound 0.1 µM, first compound 0.0316 µM
[6] = second compound 0.1 µM, first compound 0.1 µM
[7] = second compound 0.316 µM, first compound 0.000316 µM
[8] = second compound 0.316 µM, first compound 0.001 µM
[9] = second compound 0.316 µM, first compound 0.00316 µM
[10] = second compound 0.316 µM, first compound 0.01 µM
[11] = second compound 0.316 µM, first compound 0.0316 µM
[12] = second compound 0.316 µM, first compound 0.1 µM
[13] = second compound 1 µM, first compound 0.000316 µM
[14] = second compound 1 µM, first compound 0.001 µM
[15] = second compound 1 µM, first compound 0.00316 µM
[16] = second compound 1 µM, first compound 0.01 µM
[17] = second compound 1 µM, first compound 0.0316 µM
[18] = second compound 1 µM, first compound 0.1 µM
[19] = second compound 3.16 µM, first compound 0.000316 µM
[20] = second compound 3.16 µM, first compound 0.001 µM
[21] = second compound 3.16 µM, first compound 0.00316 µM
[22] = second compound 3.16 µM, first compound 0.01 µM
[23] = second compound 3.16 µM, first compound 0.0316 µM
[24] = second compound 3.16 µM, first compound 0.1 µM
[25] = second compound 10 µM, first compound 0.000316 µM
[26] = second compound 10 µM, first compound 0.001 µM
[27] = second compound 10 µM, first compound 0.00316 µM
[28] = second compound 10 µM, first compound 0.01 µM
[29] = second compound 10 µM, first compound 0.0316 µM
[30] = second compound 10 µM, first compound 0.1 µM
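Also: spheroids exposed to agents for seven days before readout.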
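For viability, T/C in this document: 100% = DMSO vehicle control wells as normalization base.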

SMILES: CC(C)CC(NC(=O)C(Cc1ccccc1)NC(=O)c1cnccn1)B(O)O (stereo not given) + NC1CC1c1ccc(-c2cccc(O)c2)cc1
- IC50 (second compound 0.1 µM): < 0.316 nM
- IC50 (second compound 0.316 µM): < 0.316 nM
- IC50 (second compound 1 µM): < 0.316 nM
- IC50 (second compound 3.16 µM): < 0.316 nM
- IC50 (second compound 10 µM): < 0.316 nM
- viability, T/C [1]: 6.46%
- viability, T/C [2]: 0.12%
- viability, T/C [3]: 0.04%
- viability, T/C [4]: 0.06%
- viability, T/C [5]: 0.03%
- viability, T/C [6]: 1.07%
- viability, T/C [7]: 7.13%
- viability, T/C [8]: 0.36%
- viability, T/C [9]: 0.54%
- viability, T/C [10]: 0.02%
- viability, T/C [11]: 0.31%
- viability, T/C [12]: 0.14%
- viability, T/C [13]: 4.36%
- viability, T/C [14]: 0.11%
- viability, T/C [15]: 0.85%
- viability, T/C [16]: 0.07%
- viability, T/C [17]: 0.95%
- viability, T/C [18]: 0.99%
- viability, T/C [19]: 4.22%
- viability, T/C [20]: 0.74%
- viability, T/C [21]: 0.05%
- viability, T/C [22]: 0.39%
- viability, T/C [23]: 0.09%
- viability, T/C [24]: 0.14%
- viability, T/C [25]: 1.18%
- viability, T/C [26]: 1.11%
- viability, T/C [27]: 0.6%
- viability, T/C [28]: 1.43%
- viability, T/C [29]: 0.9%
- viability, T/C [30]: 0.98%

SMILES: CC(C)CC(NC(=O)CNC(=O)c1cc(Cl)ccc1Cl)B1OC(=O)CC(CC(=O)O)(C(=O)O)O1 (stereo not given) + NC1CC1c1ccc(-c2cccc(O)c2)cc1
- IC50 (second compound 0.1 µM): 3.82 nM
- IC50 (second compound 0.316 µM): 3.08 nM
- IC50 (second compound 1 µM): 2.83 nM
- IC50 (second compound 3.16 µM): 3.13 nM
- IC50 (second compound 10 µM): 2.58 nM
- viability, T/C [1]: 91.2%
- viability, T/C [2]: 102%
- viability, T/C [3]: 57.3%
- viability, T/C [4]: 9.87%
- viability, T/C [5]: 1.39%
- viability, T/C [6]: 0.35%
- viability, T/C [7]: 102%
- viability, T/C [8]: 96.5%
- viability, T/C [9]: 47.9%
- viability, T/C [10]: 10.8%
- viability, T/C [11]: 1.68%
- viability, T/C [12]: 0.68%
- viability, T/C [13]: 90.9%
- viability, T/C [14]: 106%
- viability, T/C [15]: 44.7%
- viability, T/C [16]: 8.76%
- viability, T/C [17]: 0.48%
- viability, T/C [18]: 0.25%
- viability, T/C [19]: 93.9%
- viability, T/C [20]: 103%
- viability, T/C [21]: 49.6%
- viability, T/C [22]: 6.24%
- viability, T/C [23]: 0.66%
- viability, T/C [24]: 0.21%
- viability, T/C [25]: 83.2%
- viability, T/C [26]: 96.4%
- viability, T/C [27]: 41.5%
- viability, T/C [28]: 3.08%
- viability, T/C [29]: 0.14%
- viability, T/C [30]: 0.2%

SMILES: Nc1ccccc1NC(=O)c1ccc(CNC(=O)OCc2cccnc2)cc1 + NC1CC1c1ccc(-c2cccc(O)c2)cc1
- IC50 (second compound 0.1 µM): 94.8 nM
- IC50 (second compound 0.316 µM): 90.7 nM
- IC50 (second compound 1 µM): 79.7 nM
- IC50 (second compound 3.16 µM): 99 nM
- IC50 (second compound 10 µM): 63 nM
- viability, T/C (second compound 0.1 µM, first compound 0.00949 µM): 96.4%
- viability, T/C (second compound 0.1 µM, first compound 0.03 µM): 85.7%
- viability, T/C (second compound 0.1 µM, first compound 0.0949 µM): 49.5%
- viability, T/C (second compound 0.1 µM, first compound 0.3 µM): 14.9%
- viability, T/C (second compound 0.1 µM, first compound 0.949 µM): 1.36%
- viability, T/C (second compound 0.1 µM, first compound 3 µM): 0.66%
- viability, T/C (second compound 0.316 µM, first compound 0.00949 µM): 86%
- viability, T/C (second compound 0.316 µM, first compound 0.03 µM): 74.1%
- viability, T/C (second compound 0.316 µM, first compound 0.0949 µM): 50.6%
- viability, T/C (second compound 0.316 µM, first compound 0.3 µM): 7.98%
- viability, T/C (second compound 0.316 µM, first compound 0.949 µM): 0.56%
- viability, T/C (second compound 0.316 µM, first compound 3 µM): 0.86%
- viability, T/C (second compound 1 µM, first compound 0.00949 µM): 80.9%
- viability, T/C (second compound 1 µM, first compound 0.03 µM): 76.7%
- viability, T/C (second compound 1 µM, first compound 0.0949 µM): 45.1%
- viability, T/C (second compound 1 µM, first compound 0.3 µM): 8.53%
- viability, T/C (second compound 1 µM, first compound 0.949 µM): 0.73%
- viability, T/C (second compound 1 µM, first compound 3 µM): 0.8%
- viability, T/C (second compound 3.16 µM, first compound 0.00949 µM): 87.2%
- viability, T/C (second compound 3.16 µM, first compound 0.03 µM): 80.4%
- viability, T/C (second compound 3.16 µM, first compound 0.0949 µM): 52.2%
- viability, T/C (second compound 3.16 µM, first compound 0.3 µM): 6.55%
- viability, T/C (second compound 3.16 µM, first compound 0.949 µM): 0.23%
- viability, T/C (second compound 3.16 µM, first compound 3 µM): 0.32%
- viability, T/C (second compound 10 µM, first compound 0.00949 µM): 95.3%
- viability, T/C (second compound 10 µM, first compound 0.03 µM): 68.7%
- viability, T/C (second compound 10 µM, first compound 0.0949 µM): 42.5%
- viability, T/C (second compound 10 µM, first compound 0.3 µM): 7.86%
- viability, T/C (second compound 10 µM, first compound 0.949 µM): 0.67%
- viability, T/C (second compound 10 µM, first compound 3 µM): 0.19%

SMILES: O=C(c1cc(Cc2n[nH]c(=O)c3ccccc23)ccc1F)N1CCN(C(=O)C2CC2)CC1 + NC1CC1c1ccc(-c2cccc(O)c2)cc1
- IC50 (second compound 0.1 µM): > 10000 nM
- IC50 (second compound 0.316 µM): > 10000 nM
- IC50 (second compound 1 µM): > 10000 nM
- IC50 (second compound 3.16 µM): > 10000 nM
- IC50 (second compound 10 µM): > 10000 nM
- viability, T/C [5]: 112%
- viability, T/C [6]: 121%
- viability, T/C (second compound 0.1 µM, first compound 0.316 µM): 114%
- viability, T/C (second compound 0.1 µM, first compound 1 µM): 107%
- viability, T/C (second compound 0.1 µM, first compound 3.16 µM): 92.6%
- viability, T/C (second compound 0.1 µM, first compound 10 µM): 98.6%
- viability, T/C [11]: 109%
- viability, T/C [12]: 111%
- viability, T/C (second compound 0.316 µM, first compound 0.316 µM): 124%
- viability, T/C (second compound 0.316 µM, first compound 1 µM): 99%
- viability, T/C (second compound 0.316 µM, first compound 3.16 µM): 95.2%
- viability, T/C (second compound 0.316 µM, first compound 10 µM): 79.5%
- viability, T/C [17]: 102%
- viability, T/C [18]: 121%
- viability, T/C (second compound 1 µM, first compound 0.316 µM): 134%
- viability, T/C (second compound 1 µM, first compound 1 µM): 102%
- viability, T/C (second compound 1 µM, first compound 3.16 µM): 92.1%
- viability, T/C (second compound 1 µM, first compound 10 µM): 86%
- viability, T/C [23]: 114%
- viability, T/C [24]: 107%
- viability, T/C (second compound 3.16 µM, first compound 0.316 µM): 122%
- viability, T/C (second compound 3.16 µM, first compound 1 µM): 102%
- viability, T/C (second compound 3.16 µM, first compound 3.16 µM): 106%
- viability, T/C (second compound 3.16 µM, first compound 10 µM): 127%
- viability, T/C [29]: 111%
- viability, T/C [30]: 94.3%
- viability, T/C (second compound 10 µM, first compound 0.316 µM): 110%
- viability, T/C (second compound 10 µM, first compound 1 µM): 107%
- viability, T/C (second compound 10 µM, first compound 3.16 µM): 106%
- viability, T/C (second compound 10 µM, first compound 10 µM): 91.8%

From PubChem BioAssay AID1918952 (Molecular Pharmacology Branch, DTP, NCI, 2023)
